Assay results taken from a compilation of properties of binary mixtures (doi:10.1016/j.molliq.2017.02.011).

Assay: xn = mol fraction of the nth substance listed
Conditions: 100 kPa

O=C1CCCCC1 + CCCC[n+]1ccn(C)c1C.F[B-](F)(F)F
x2 = 0
Conditions | speed of sound [m/s]
298.15 K | 1414.5
308.15 K | 1375.1

CCCC[n+]1ccn(C)c1C.F[B-](F)(F)F + O=C1CCCCC1
speed of sound [m/s]
Conditions | 293.15 K | 298.15 K | 303.15 K | 308.15 K
x1 = 0.0834 | 1450.2 | 1433.6 | 1413.1 | 1392
x1 = 0.1328 | 1459.4 | 1442.1 | 1421.5 | –
x1 = 0.1764 | 1467.2 | 1448.8 | 1427.9 | 1406.3
x1 = 0.2258 | 1472.4 | – | 1433.4 | 1412.3
x1 = 0.2675 | 1476.1 | 1458.1 | 1437.7 | 1417.1
x1 = 0.3094 | 1479.6 | – | 1441.5 | 1420.8
x1 = 0.3824 | 1486 | 1468.5 | – | 1428.9
x1 = 0.4368 | – | – | 1454.6 | 1434.8
x1 = 0.4755 | 1496 | 1478.6 | – | 1440.1
x1 = 0.5276 | 1503.2 | 1486.2 | 1467.5 | 1448.5
x1 = 0.5649 | 1509.3 | 1492.5 | 1474.1 | 1455.6
x1 = 0.6063 | 1517 | 1500.4 | 1482.5 | 1464.2
x1 = 0.6451 | 1525.2 | 1508.9 | – | 1473.4
x1 = 0.6947 | – | 1521.1 | 1504.3 | 1487.3
x1 = 0.7419 | 1550.5 | 1534.8 | 1518.7 | –
x1 = 0.7994 | – | 1553.9 | – | –
x1 = 0.8527 | 1589.2 | 1574.3 | 1559.8 | 1544.8
x1 = 0.9134 | 1615.7 | – | 1587.9 | –
x1 = 1 | 1659.7 | 1645.7 | 1632.5 | –
